# How the values were obtained:
# [1] = Calcein release from liposomes; details: for τ (characteristic time of marker release): 5 μg/mL; for IFmax (maximum release of fluorescent marker from lipid vesicles): 5 μg/mL of test compound
# Experimental: Calcein release from liposomes. Small unilamellar vesicles (Ø100 nm) composed of 1,2-dioleoyl-sn-glycero-3-phosphocholine (DOPC) or 1,2-dioleoyl-sn-glycero-3-phospho-(1′-rac-glycerol) (DOPG) and loaded with the fluorescent dye calcein (35 mM) were obtained using a mini-extruder (Avanti Polar Lipids, Alabaster, AL, USA). At this concentration, calcein fluorescence inside the liposomes is self-quenched. The calcein that was not entrapped in the vesicles was removed by gel filtration with calcein-free solution (150 mM KCl, 10 mM HEPES, pH 7.4). An increase in the free calcein fluorescence in a surrounding medium is a measure of the disturbance of membrane integrity, in the absence and presence of test compounds (4, 20, 22). The control samples were not modified. Experimental samples were treated by 5 µg/mL of the compounds (4, 20, 22). Fluorescence of released calcein was determined on a Fluorat-02-Panorama spectrofluorimeter (Lumex, Saint-Petersburg, Russia) (excitation wavelength of 490 nm, emission wavelength of 520 nm). The detergent Triton X-100 (at a final concentration of 1%) was added at the end of experiments for complete disruption of liposomes (complete release of calcein from the vesicles).
# The relative intensity of calcein fluorescence (IF, %) was calculated as:(2) IF=I−I0/Imax/0.9−I0⋅100% where I and I0 are the calcein fluorescence intensities in the presence and absence of test compounds, respectively, and Imax is the maximal fluorescence after treatment of liposomes with Triton X-100 (a factor of 0.9 was introduced to account for sample dilution by Triton X-100).
# human red blood cells = experiment: Hemolysis assay; assay type: cell-based; details: human, 1 h
# Hemolysis assay = assay type: cell-based, human; details: human, Dmax (maximal percentage of hemolysis)
# [2] = Measurement of the membrane boundary potential (K+-nonactin conductance); details: 0.1 M KCl, pH 7.4, 50 mV
# Experimental: Measurement of the membrane boundary potential. Virtually solvent-free planar lipid bilayers were made of DPhPC or DPhPG as described above. After the membrane was completely formed and stabilized and its stability was assessed by applying voltages in a range from −200 to 200 mV with a 50 mV step for 5–10 min, stock solutions of nonactin A (7 μg/mL in ethanol) were added to the bathing solution (0.1 M KCl, 5 mM HEPES, pH 7.4) in both chamber compartments to obtain a final concentration ranging from 0.1 to 1 μM.
# Test derivatives (4, 20, 22) as 10 mg/mL solutions in ethanol were added to both compartments in a concentration range from 5 µg/mL to Cbr in increments of 25 µg/mL.
# The conductance of the bilayers was determined by measuring the membrane conductance (G) at a constant transmembrane voltage of 50 mV. In the subsequent calculations, the membrane conductance was assumed to be related to the membrane boundary potential (φb), the potential drop between the aqueous solution and the membrane hydrophobic core, by the Boltzmann distribution (1) Gm/Gm0=exp(eΔφb/kT) where Gm and Gm^0 are the steady-state membrane conductances induced by K^+-nonactin in the presence and absence of test compounds, respectively; e, k, and T have their usual meanings.
# The changes in the membrane boundary potential for the defined experimental conditions were averaged from 4 bilayers and presented as mean ± standard deviation (p ≤ 0.05).
# [3] = Ion permeability, pore formation and rupture of planar lipid bilayers; details: for formation of ion-permeable pores: DPhPG bilayers; for Cbr (threshold concentration required to rupture the bilayer): 0.1 M KCl, pH 7.4, 100 mV
# Experimental: Synthetic 1,2-diphytanoyl-sn-glycero-3-phosphocholine (DPhPC) and 1,2-diphytanoyl-sn-glycero-3-phospho-(1′-rac-glycerol) (DPhPG) were purchased from Avanti® Polar Lipids (Avanti Polar Lipids, Inc., Alabaster, AL, USA). A KCl solution (0.1 M) was buffered with 5 mM HEPES, pH 7.4. Bilayer lipid membranes were prepared from DPhPC or DPhPG using a monolayer-opposition technique on a 50 µm-diameter aperture in a 10 µm-thick Teflon film separating the cis- and trans-compartments of the Teflon chamber. Experiments were performed in chambers containing 0.1 M KCl, 5 mM Hepes-KOH, pH 7.4.
# The test compounds (4, 20, 22) were added to the cis-chamber as 10 mg/mL solutions in ethanol (to mimic the physiologically relevant conditions) up to the final concentrations and the effects of the compounds on the ion permeability of the model lipid membranes were studied. Ag/AgCl electrodes with 1.5% agarose/2 M KCl bridges were used to apply the transmembrane voltage (V) and measure the transmembrane current (I). ‘Positive voltage’ refers to the case in which the cis-side compartment is positive with respect to the trans-side. All experiments were performed at room temperature.
# The current was measured using an Axopatch 200B amplifier (Molecular Devices, LLC, Orlean, CA, USA) in voltage clamp mode. Data were digitized using a Digidata 1440A and analyzed using pClamp 10.0 (Molecular Devices, LLC, Orlean, CA, USA) and Origin 8.0 (OriginLab Corporation, Northampton, MA, USA). The data were acquired at a sampling frequency of 5 kHz using low-pass filtering at 200 Hz.
# The threshold concentrations (Cbr) of the derivatives required to rupture the bilayers composed of DPhPC or DPhPG at a transmembrane voltage of 100 mV were determined. Cbr-values were averaged from 3 to 4 bilayers and presented as mean ± standard error (p ≤ 0.05).
# Pore-forming ability of compound 22 was studied by applying transmembrane voltages in a range of 50–200 mV with 50 mV step and by increasing the derivative concentration in the bilayer bathing solution from 10 to 150 µg/mL.
SMILES,τ (characteristic time of marker release) ([1]; DOPC) [min],IFmax (maximum release of fluorescent marker from lipid vesicles) ([1]; DOPC) [%],τ (characteristic time of marker release) ([1]; DOPG) [min],IFmax (maximum release of fluorescent marker from lipid vesicles) ([1]; DOPG) [%],Dmax (maximal percentage of hemolysis) (human red blood cells) [%],hemolysis at 1 h (Hemolysis assay) [%],−Δφb(max) (maximum decrease in the membrane boundary potential) ([2]; DPhPC) [mV],−Δφb(max) (maximum decrease in the membrane boundary potential) ([2]; DPhPG) [mV],concentration up to which ionic permeability of lipid bilayers is not affected ([3]; DPhPG) [µg/mL],formation of ion-permeable pores [3],Cbr (threshold concentration required to rupture the bilayer) ([3]; DPhPG) [µg/mL],HC50 (human red blood cells),concentration from which (up to Cbr) stepwise current fluctuations are produced ([3]; DPhPG) [µg/mL],"amplitude of the stepwise current fluctuations ([3]; DPhPG, pores induced by the compound)"
"COC(=O)/C(CCC=C(C)C)=C1\[C@@H](OC(C)=O)C[C@@]2(C)[C@@H]1C[C@@H](O)[C@@H]1[C@@]3(C)CC[C@H](NCCCNCCCCN)[C@@H](C)C3CC[C@@]12C (stereo partly drawn) [Compound 20, Methyl (2Z)-2-[(3β,4α,8α,11α,14β,16β)-16-(acetyloxy)-3-({3-[(4aminobutyl)amino]propyl}amino)-11-hydroxy-4,8,10,14-tetramethylgonan-17-ylidene]-6-methylhept-5-enoate]",0.5 ± 0.2,88 ± 3,1.0 ± 0.1,87 ± 4,60.5,61.8,29 ± 7,11 ± 4,≤ 200,not able to form transient ion-permeable pores,190 ± 13,–,–,–
"COC(=O)/C(CCC=C(C)C)=C1\[C@@H](OC(C)=O)C[C@@]2(C)[C@@H]1C[C@@H](O)[C@@H]1[C@@]3(C)CC[C@H](NCCCNCCCCNCCCN)[C@@H](C)C3CC[C@@]12C (stereo partly drawn) [Compound 22, Methyl (2Z)-2-[(3β,4α,8α,11α,14β,16β)-16-(acetyloxy)-3-{[3-({4-[(3-aminopropyl)amino]butyl}amino)propyl]amino}-11-hydroxy-4,8,10,14-tetramethylgonan-17-ylidene]-6-methylhept-5-enoate]",0.7 ± 0.2,95 ± 2,9.8 ± 0.4,83 ± 3,11.3,15.1,40 ± 8,23 ± 8,–,able to produce stepwise current fluctuations,135 ± 10,>32 >32 µg/mL,35 to 40,20–160 pS

# Source: PMC10056636, “3-Amino-Substituted Analogues of Fusidic Acid as Membrane-Active Antibacterial Compounds” (Membranes, 2023)
